Measurements reported in PMC5089669, “Biocatalytic Properties and Structural Analysis of Eugenol Oxidase from Rhodococcus jostii RHA1: A Versatile Oxidative Biocatalyst” (Chembiochem, 2016).

Experiments:
[1] = target: T1, Eugenol oxidase (EUGO) (Rhodococcus jostii, UniProt Q0SBK1); test: crystal structure; type: binding; conditions: covalent; His390 to C8M of flavin
T1 construct: gene RHA1_ro03282; homodimer
T1 sequence (Q0SBK1 1-526): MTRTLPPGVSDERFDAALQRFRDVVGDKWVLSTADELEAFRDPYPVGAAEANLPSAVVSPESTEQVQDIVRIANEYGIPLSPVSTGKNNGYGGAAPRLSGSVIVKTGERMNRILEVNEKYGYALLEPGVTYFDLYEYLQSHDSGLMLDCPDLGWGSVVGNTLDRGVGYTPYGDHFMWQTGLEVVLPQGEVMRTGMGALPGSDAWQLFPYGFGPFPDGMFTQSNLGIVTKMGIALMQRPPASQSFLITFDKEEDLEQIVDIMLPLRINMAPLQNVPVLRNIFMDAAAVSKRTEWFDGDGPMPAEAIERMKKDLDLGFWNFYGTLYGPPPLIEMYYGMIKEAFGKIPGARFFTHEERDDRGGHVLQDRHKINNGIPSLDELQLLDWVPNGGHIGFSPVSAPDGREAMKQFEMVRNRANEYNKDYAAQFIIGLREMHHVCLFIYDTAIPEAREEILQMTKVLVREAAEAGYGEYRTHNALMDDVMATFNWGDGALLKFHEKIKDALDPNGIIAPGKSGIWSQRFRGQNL

[2] = target: T1, Eugenol oxidase (EUGO); test: crystal structure of unsoaked native crystals; type: binding; conditions: weak inhibitor; density tentatively assigned, co-purified; active site Tyr-Tyr-Arg

| Compound | crystal structure [1] | crystal structure of unsoaked native crystals [2] |
| --- | --- | --- |
| Cc1cc2nc3c(=O)[nH]c(=O)nc-3n(C[C@H](O)[C@H](O)[C@H](O)COP(=O)(O)OP(=O)(O)OC[C@H]3O[C@@H](n4cnc5c(N)ncnc54)[C@H](O)[C@@H]3O)c2cc1C [FAD] | covalent bond between His390 (equivalent to His422 of VAO) and the C8M atom | – |
| O=C(O)c1ccccc1 [benzoate] | – | we found benzoate to be a weak EUGO inhibitor |
